Source: patent US11389424B2, “Methods and compositions for treating chemotherapy-induced diarrhea” (NAPO PHARMACEUTICALS, INC., priority 2017, dated 2022)
Where two headings read alike, the source gives them in different places.

Legend:
[1] = test system: recurrent, cutaneous mast cell tumors; conditions: cited from earlier work
[2] = 9-month toxicity study (WIL-288022), oral (capsule) administration of enteric-coated crofelemer tablets; parameters: species or system beagle dogs; conditions: dog, in vivo
Protocol: The dose for this study was based on data obtained from a pilot study that assessed the clinical effectiveness of crofelemer (SP-303) in alleviating clinical signs associated with secretory diarrhea in dogs (CANA-001) and the wide margin of safety established in 30-day (WIL-288006) and 9-month (WIL-288022) toxicity studies. Chronic safety of crofelemer in dogs was studied in a 9-month study during which tablets were administered in capsules once daily, 7 days per week, for 273 or 274 days to three groups of beagle dogs. Dosage levels were 50, 175 and 600 mg/kg/day, plus a concurrent control group. Based on the results of this study, the no-observed-adverse-effect level (NOAEL) for oral (capsule) administration of enteric-coated crofelemer tablets to dogs for 273 or 274 consecutive days was 50 mg/kg/day. […] Thus, the no effect level is estimated to be between 50 and 175 mg/kg/day.

Molecule	objective response (primary effectiveness endpoint) ([1]; end of the six-week masked phase, vs placebo 8%, p<0.001) [%]	all grade diarrhea ([1]; masked phase) [%]	grade 3-4 diarrhea ([1]; masked phase) [%]	any grade diarrhea ([1]; masked plus open label phases) [%]	grade 3-4 diarrhea ([1]; masked plus open label phases) [%]	primary adverse effect at the higher dosages [2]
Cc1[nH]c(/C=C2\C(=O)Nc3ccc(F)cc32)c(C)c1C(=O)NCCN1CCCC1.O=P(O)(O)O [toceranib phosphate, Toceranib phosphate]	37	46	7	59	8	
Crofelemer						gastrointestinal irritation
